The record followed here is US10877036B2, “Biosensor based on Gβγ-interacting proteins to monitor G-protein activation” (priority 2014, dated 2020).

Assay [1] has as its system Gαq substituted at position 67 (Y67C, Y67G, Y67S & Y67L). As to the kind of experiment: Ubo-Qic sensitivity of the activation of mutant Gαq (BRET biosensor). It counts as cell-based, human. The conditions noted are these: FIG. 5D. An excerpt: (§1) Expression vectors: Receptors and G-proteins. The plasmid encoding AT1 R was a generous gift from Stéphane Laporte (McGill University, Montréal, Canada). Gαq, Gα11, Gα12, Gα13, Gα14, Gα15/16, GαoA, GαoB, Gαz, Gαs, Gαi1, Gαi2, Gαi3, Gβ1, TPαR, D2R and α1BAR were obtained from the cDNA Resource Center (cDNA.org). Plasmids encoding mutant Gα proteins including GαqG66K, GαqY67C and GαqF75G, were obtained by site-directed mutagenesis (PCR overlap) of the Gαq wild-type protein coding sequence using the primers depicted in Table I. The PCR fragments were digested with Acc65I+XhoI restriction enzymes and cloned in pCDNA3.1 Zeo(+) (from Invitrogen®, Carlsbad, Calif.) digested Acc65I+XhoI. […]
(§2) BRET assays in living cells. […] BRET values were then collected using a Mithras™ LB940 Multimode Microplate Reader or a TRISTAR® LB942 Multimode Microplate Reader, equipped with the following filters: 400 nm±70 nm (energy donor) and 515 nm±20 nm (energy acceptor). BRET values were determined by calculating the ratio of the light emitted by GFP (515 nm) over the light emitted by the Rluc (400 nm). To determine the % of activation (Stim as % of basal), BRET values obtained for the agonist treated cells where expressed as a percentage of the BRET values obtained with the corresponding cells treated with vehicle. […]
In general terms: Bioluminescence resonance energy transfer reports proximity on the nanometre scale.

A further assay deals with T1, GαqF75G (Homo sapiens, UniProt P50148, F75G).
T1 construct: expressed in transfected cells; host or cells: HEK293
T1 sequence (P50148 1-359 F75G): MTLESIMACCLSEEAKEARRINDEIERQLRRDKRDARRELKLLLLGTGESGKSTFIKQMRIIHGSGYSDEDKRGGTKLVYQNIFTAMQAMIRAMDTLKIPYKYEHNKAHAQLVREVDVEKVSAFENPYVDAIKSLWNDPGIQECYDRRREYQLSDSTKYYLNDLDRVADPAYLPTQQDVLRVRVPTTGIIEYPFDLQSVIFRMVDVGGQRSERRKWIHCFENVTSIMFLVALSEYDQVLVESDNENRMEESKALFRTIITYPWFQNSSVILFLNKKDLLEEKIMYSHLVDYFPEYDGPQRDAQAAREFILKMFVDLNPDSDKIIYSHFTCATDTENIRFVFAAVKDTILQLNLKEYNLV
The assay is described as above. The format is cell-based. As to conditions: Gαq Phe75 to glycine; FIG. 5D.
Text: as §1, §2

A further assay deals with T2, Gα12 (Homo sapiens, UniProt Q03113).
T2 construct: host or cells: HEK293
T2 sequence (Q03113 1-381): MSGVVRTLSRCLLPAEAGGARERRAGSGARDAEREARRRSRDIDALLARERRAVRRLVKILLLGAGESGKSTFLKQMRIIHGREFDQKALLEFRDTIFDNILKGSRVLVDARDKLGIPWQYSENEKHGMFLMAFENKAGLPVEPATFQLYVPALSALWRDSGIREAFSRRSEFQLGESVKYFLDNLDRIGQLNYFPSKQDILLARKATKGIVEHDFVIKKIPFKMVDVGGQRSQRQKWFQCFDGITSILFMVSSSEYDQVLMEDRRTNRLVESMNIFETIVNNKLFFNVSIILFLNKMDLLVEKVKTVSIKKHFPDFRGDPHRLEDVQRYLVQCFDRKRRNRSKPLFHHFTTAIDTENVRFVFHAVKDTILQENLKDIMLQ
The assay can be described thus: Ubo-Qic selectivity, TPαR-mediated G-protein activation (BRET biosensor). The format is cell-based. As to conditions: U-46619 100 nM, FIG. 5C. Here is the method: (§3) BRET assays in living cells. Cells seeded in 96-well plates were washed twice with Phosphate Buffered Saline (PBS), followed by Tyrode buffer addition (composition: 137 mM NaCl, 0.9 mM KCl, 1 mM MgCl2, 11.9 mM NaHCO3, 3.6 mM NaH2PO4, 25 mM HEPES, 5.5 mM Glucose and 1 mM CaCl2, pH 7.4). The cells were then treated with the different ligands or vehicle for the indicated times. The Rluc substrate, coelenterazine 400a, was added at a final concentration of 2.5 μM and cells were further incubated for an additional 5 minutes. BRET values were then collected using a Mithras™ LB940 Multimode Microplate Reader or a TRISTAR® LB942 Multimode Microplate Reader, equipped with the following filters: 400 nm±70 nm (energy donor) and 515 nm±20 nm (energy acceptor). BRET values were determined by calculating the ratio of the light emitted by GFP (515 nm) over the light emitted by the Rluc (400 nm). To determine the % of activation (Stim as % of basal), BRET values obtained for the agonist treated cells where expressed as a percentage of the BRET values obtained with the corresponding cells treated with vehicle.
(§4) G-protein inhibitors. BRET assays were performed as described previously, except that cells were pre-treated overnight at 37° C. with 100 ng/ml of pertussis toxin, or, for 20 minutes at 37° C. with 100 nM of Ubo-Qic.

The next assay concerns the target T3, Gα15/16 (Homo sapiens, UniProt P30679).
T3 construct: host or cells: HEK293
T3 sequence (P30679 1-374): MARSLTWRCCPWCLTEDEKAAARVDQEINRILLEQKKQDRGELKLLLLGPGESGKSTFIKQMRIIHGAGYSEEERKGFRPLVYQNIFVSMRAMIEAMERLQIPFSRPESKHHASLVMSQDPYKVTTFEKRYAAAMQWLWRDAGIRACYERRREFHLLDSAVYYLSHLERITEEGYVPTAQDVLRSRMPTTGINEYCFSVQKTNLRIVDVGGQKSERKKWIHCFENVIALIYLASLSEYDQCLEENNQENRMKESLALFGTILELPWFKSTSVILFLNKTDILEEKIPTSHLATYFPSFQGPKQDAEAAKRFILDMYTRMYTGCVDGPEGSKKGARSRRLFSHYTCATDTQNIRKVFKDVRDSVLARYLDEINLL
The assay is described as above. It counts as cell-based. The conditions noted are these: U-46619 100 nM, FIG. 5C. Here is the method: as §3, §4

The next assay deals with T4, Gα13 (Homo sapiens, UniProt Q14344).
T4 construct: host or cells: HEK293
T4 sequence (Q14344 1-377): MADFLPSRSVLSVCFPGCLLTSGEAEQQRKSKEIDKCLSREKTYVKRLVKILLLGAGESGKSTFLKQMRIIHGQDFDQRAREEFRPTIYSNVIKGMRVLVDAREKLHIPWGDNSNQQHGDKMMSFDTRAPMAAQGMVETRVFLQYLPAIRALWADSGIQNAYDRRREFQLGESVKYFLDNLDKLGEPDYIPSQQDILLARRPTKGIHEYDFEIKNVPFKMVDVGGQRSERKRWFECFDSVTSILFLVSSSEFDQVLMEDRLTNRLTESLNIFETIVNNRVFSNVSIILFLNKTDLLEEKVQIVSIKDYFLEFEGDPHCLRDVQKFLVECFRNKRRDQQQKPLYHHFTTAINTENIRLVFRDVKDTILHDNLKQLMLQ
The description is as above. It counts as cell-based. The conditions noted are these: U-46619 100 nM, FIG. 5C. The method, then: as §3, §4

The target of the next assay is T5, Gαi1 (Homo sapiens, UniProt P63096).
T5 construct: host or cells: HEK293
T5 sequence (P63096 whole entry): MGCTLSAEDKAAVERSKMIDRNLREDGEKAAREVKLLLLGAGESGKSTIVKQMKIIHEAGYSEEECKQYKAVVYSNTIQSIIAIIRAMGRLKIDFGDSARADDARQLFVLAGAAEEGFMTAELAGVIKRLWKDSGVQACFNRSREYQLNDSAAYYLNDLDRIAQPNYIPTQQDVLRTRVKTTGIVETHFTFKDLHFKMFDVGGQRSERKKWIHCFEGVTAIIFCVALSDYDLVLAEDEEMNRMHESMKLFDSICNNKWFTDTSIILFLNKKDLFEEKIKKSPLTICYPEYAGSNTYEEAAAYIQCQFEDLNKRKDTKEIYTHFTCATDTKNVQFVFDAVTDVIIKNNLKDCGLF
As to the kind of experiment: G-protein inhibitor pre-treatment, D2R/Gαi1 BRET biosensor response. It counts as cell-based. The conditions noted are these: D2R/Gαi1, agonist rotigotine; 100 nM Ubo-Qic for 20 minutes or 100 ng/ml pertussis toxin overnight; FIG. 5B. Here is the method:
as §3, §4

The next assay concerns the target T6, Gαq (Homo sapiens, UniProt P50148).
T6 construct: host or cells: HEK293
T6 sequence (P50148 1-359): T1 sequence (P50148 1-359 F75G) with G75F
As to the kind of experiment: G-protein inhibitor pre-treatment, TPαR/Gαq BRET biosensor response. It counts as cell-based. The conditions noted are these: agonist U-46619, 100 nM Ubo-Qic for 20 minutes or 100 ng/ml pertussis toxin overnight, FIG. 5A. Here is the method: as §3, §4

Assay [2] concerns the target T7, angiotensin II type 1 receptor (AT1R) (Homo sapiens, UniProt P30556).
T7 construct: host or cells: HEK293
T7 sequence (P30556 1-359): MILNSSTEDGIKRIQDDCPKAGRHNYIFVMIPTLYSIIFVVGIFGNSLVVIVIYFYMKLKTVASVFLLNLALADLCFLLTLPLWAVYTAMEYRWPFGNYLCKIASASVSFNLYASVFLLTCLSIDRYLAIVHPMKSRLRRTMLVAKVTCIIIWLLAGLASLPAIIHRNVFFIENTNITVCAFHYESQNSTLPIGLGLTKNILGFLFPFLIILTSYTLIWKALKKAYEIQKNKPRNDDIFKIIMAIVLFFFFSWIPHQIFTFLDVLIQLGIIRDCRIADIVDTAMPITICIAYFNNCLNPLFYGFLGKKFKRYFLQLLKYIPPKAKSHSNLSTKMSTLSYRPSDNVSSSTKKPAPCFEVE
The assay can be described thus: Ligand profiling with the βγIP-based BRET biosensor, AT1R with Gαq or Gα12. It counts as cell-based. As to conditions: Gα12 versus Gαq, FIG. 8C. Here is the method: Cell culture and transfections. Human embryonic kidney 293 (HEK293) cells were maintained in Dulbecco's Modified Eagle's Medium (DMEM) supplemented with 10% fetal bovine serum, 100 unit/ml penicillin/streptomycin at 37° C. in a humidified atmosphere with 5% CO2. Two days before the experiments, HEK293 cells were transfected with the indicated plasmids using poly-ethylenimine 25-kDa linear (PEI) as a transfecting agent (at a ratio of 3 to 1, PEI/DNA) (Hamdan, Rochdi et al. 2007), and then directly seeded in 96-well plates pre-treated with poly-L-ornithine hydrobromide or Poly-D-Lysine, at a density of 35,000 cells per well (for BRET and PCA assays in living cells), or 6-well plates at a density of 1,000,000 cells per well (for BRET assays on membrane preparations).
BRET assays in living cells. […] BRET values were then collected using a Mithras™ LB940 Multimode Microplate Reader or a TRISTAR® LB942 Multimode Microplate Reader, equipped with the following filters: 400 nm±70 nm (energy donor) and 515 nm±20 nm (energy acceptor). BRET values were determined by calculating the ratio of the light emitted by GFP (515 nm) over the light emitted by the Rluc (400 nm). To determine the % of activation (Stim as % of basal), BRET values obtained for the agonist treated cells where expressed as a percentage of the BRET values obtained with the corresponding cells treated with vehicle.

Residue numbers refer to the chain shown, from its start. Starred links: 1 amine or outer side, 2 acyl side, 3 side chain; linkers in the order of their positions; H or OH if unused. Positions of bridges follow the written chain, without caps; N, C: chain ends. Non-standard residues stand in square brackets, D forms with d. Residues, ends and D or L forms follow the SMILES beside them. *: point of attachment. Leu(3R-OH,Nα-propionyl) = CCC(=O)N[C@H](C(=O)*)[C@H](O)C(C)C; X1 = CC(C)[C@@H](O[*:3])[C@H](N[*:1])C(=O)[*:2]; NMeT = CN[C@H](C(=O)O)[C@@H](C)O; dPhLac = O=C(O)[C@H](O)Cc1ccccc1; NMeA = CN[C@@H](C)C(=O)O; NMeDha = C=C(NC)C(=O)O

On to `C=C1C(=O)N[C@@H](C)C(=O)N(C)[C@@H](C)C(=O)N[C@@H]([C@H](OC(=O)[C@@H](NC(=O)CC)[C@H](O)C(C)C)C(C)C)C(=O)N(C)[C@@H]([C@@H](C)OC)C(=O)O[C@H](C(C)C)[C@H](NC(C)=O)C(=O)O[C@H](Cc2ccccc2)C(=O)N1C` [Ubo-Qic, L-threonine,(3R)-N-acetyl-3-hydroxy-L-leucyl-(aR)-a-hydroxybenzenepropanoyl-2,3-idehydro-N-methylalanyl-L-alanyl-N-methyl-L-alanyl-(3R)-3-[[(2S,3R)-3-hydroxy-4-methyl-1-oxo-2-[(1-oxopropyl)amino]pentyl]oxy]-L-leucyl-N,O-dimethyl-,(7→1)-lactone (9CI)] (Ac-[X1][dPhLac][NMeDha]A[NMeA][X1](Leu(3R-OH,Nα-propionyl))[NMeT](Me); ester 1-C), for which the “sensitivity of mutant Gαq activation to the inhibitor” value in assay [1] is “resistance”. Besides, the “inhibition of mutant Gαq activation” value at GαqF75G is reported as “partial”. In addition, the “sensitivity of G-protein activation to the inhibitor” value on Gα12, on Gα15/16 and on Gα13 was “insensitive” each time. Besides, the “effect of pre-treatment on the biosensor BRET response after agonist incubation” value on Gαi1 is reported as “no detectable effect”. Besides, the “effect of pre-treatment on the BRET response following agonist stimulation” value at Gαq is “completely abolished”.
Take [Asp^1, Val^5, Gly^8]-AngII [DVG]: in assay [2], the “efficacy of G-protein activation relative to angiotensin II response” value was “better efficacy for Gα12 activation than Gαq”.
